Each structure is given as a SMILES string. Where only a bound is given, the exact number is not on record here.

Data set [1] is described as follows: Plasma exposures following intramuscular administration of prodrugs to cynomolgus monkeys. Conditions: single IM injection, 10 mg/kg.
The nature of data set [2]: Plasma stability (human plasma). As to conditions: for Formation of EFdA at 30 min: human plasma; for half-life at 2 µM: human, pH 7.4. How it is done:
The pooled frozen plasma was thawed in a water bath at 37° C. prior to experiment. Plasma was centrifuged at 4000 rpm for 5 min and the clots were removed if any. The pH will be adjusted to 7.4±0.1 if required.
Preparation of test compounds and positive control (propantheline bromide): 1 mM intermediate solution was prepared by diluting 10 μL of the stock solution with 90 μL MeOH; 1 mM intermediate of positive control Propantheline was prepared by diluting 10 μL of the stock solution with 90 μL ultrapure water. 100 μM dosing solution was prepared by diluting 20 μL of the intermediate solution (1 mM) with 180 μL MeOH. 98 μL of blank plasma was spiked with 2 μL of dosing solution (100 μM) to achieve 2 μM of the final concentration in duplicate and samples were incubated at 37° C. in a water bath. […] Centrifuged sample plates at 4,000 rpm for 10 min. An aliquot of supernatant (100 μL) was transferred from each well to another plates.

Data set [3] can be described thus: Liver S9 stability (human liver S9). It counts as in vitro ADME. Conditions: for half-life at 1 µM: human liver S9, 37° C.; for Formation of EFdA at 30 min: human liver S9, 30 min. How it is done: Add 600 μL/well stop solution (cold in 4° C., including 100 ng/mL Tolbutamide/100 ng/mL Labetalol) to terminate the TO plate, then put it on ice. Dispense 840 μL/well S9 solution to 96-well plate as reservoir according to plate map. Then add 100 μL/well to every plate by Apricot. Incubate S9 solution and compound at 37° C. for about 10 min except NCF60 and TO. After adding S9 solution and 98μ LPB buffer to NCF60, incubate at 37° C. without pre-warming, start timer 1. After 60 min, add 600 μL/well stop solution to terminate the reaction. After pre-warming, dispense 760 μL/well cofactor solution to 96-well plate as reservoir according to plate map. Then add 98 μL/well to every plate by Apricot to start reaction. Incubate at 37° C., start timer 2, Add 600 μL/well stop solution (cold in 4° C., including 100 ng/mL Tolbutamide and Labetalol) to terminate the reaction. Samples are centrifuged at 4000 rpm for 20 min. While centrifuging, load 8× new 96-well plate with 300 μL HPLC water, then transfer 100 μL supernatant, mix with water for LC/MS/MS, transferred to Bioanalytical Services for LC-MS/MS analysis. Use equation of first order kinetics [NT]1/2 and CL: Equation of first order kinetics: [formula] [formula] [formula] [formula]

The term half-life denotes the time in which the quantity being followed falls by half. The low end stands for rapid decline, the high end for slow decline. `C#C[C@]1(COC(=O)OCCCCC23CC4CC(CC(C4)C2)C3)O[C@@H](n2cnc3c(N)nc(F)nc32)C[C@@H]1O` [Compound 12, ((2R,3S,5R)-5-(6-amino-2-fluoro-9H-purin-9-yl)-2-ethynyl-3-hydroxy-tetrahydrofuran-2-yl)methyl 4-(1-adamantyl)butyl carbonate]: in data set [1], the “Release of EFdA in vivo and prodrug level in the systemic circulation” value (shortened to “Release of EFdA”) was “efficiently release EFdA in vivo with minimal to low levels of prodrug detected in the systemic circulation”. In data set [2], the “Formation of EFdA at 30 min” value is listed as “Yes”. The compound also showed a half-life at 2 µM in data set [2] (pooled plasma) of less than 50 min. Further, in data set [3], the half-life at 1 µM was less than 50 min and the “Formation of EFdA at 30 min” value is “Yes”.
With `C#C[C@]1(CO)O[C@@H](n2cnc3c(N)nc(F)nc32)C[C@@H]1OC(=O)OCCC12CC3CC(CC(C3)C1)C2` [Compound 8, ((2R,3S,5R)-5-(6-amino-2-fluoro-9H-purin-9-yl)-2-ethynyl-2-(hydroxymethyl)tetrahydrofuran-3-yl) 2-(1-adamantyl)ethyl carbonate], the “Formation of EFdA at 30 min” value in data set [2] was “Yes”. Further, in data set [2] (pooled plasma), the half-life at 2 µM was in the range of 50 to 200 min. Further, in data set [3], the half-life at 1 µM was less than 50 min and the “Formation of EFdA at 30 min” value is “Yes”.
Turning to `C#C[C@]1(COC(=O)OCCCC23CC4CC(CC(C4)C2)C3)O[C@@H](n2cnc3c(N)nc(F)nc32)C[C@@H]1O` [Compound 10, ((2R,3S,5R)-5-(6-amino-2-fluoro-9H-purin-9-yl)-2-ethynyl-3-hydroxy-tetrahydrofuran-2-yl)methyl 3-(1-adamantyl)propyl carbonate], the “Release of EFdA” value in data set [1] is “efficiently release EFdA in vivo with minimal to low levels of prodrug detected in the systemic circulation”. Moreover, the “Formation of EFdA at 30 min” value in data set [2] is “Yes”. In data set [2] (pooled plasma), this compound yielded a half-life at 2 µM of less than 50 min. Besides, in data set [3], the half-life at 1 µM is less than 50 min and the “Formation of EFdA at 30 min” value was “Yes”.
As for `C#C[C@]1(COC(=O)OCCC23CC4CC(CC(C4)C2)C3)O[C@@H](n2cnc3c(N)nc(F)nc32)C[C@@H]1O` [Compound 7, ((2R, 3S, 5R)-5-(6-amino-2-fluoro-9H-purin-9-yl)-2-ethynyl-3-hydroxy-tetrahydrofuran-2-yl)methyl 2-(1-adamantyl)ethyl carbonate], in data set [1], the “Release of EFdA” value is recorded as “efficiently release EFdA in vivo with minimal to low levels of prodrug detected in the systemic circulation”. The “Formation of EFdA at 30 min” value in data set [2] is listed as “Yes”. Besides, the half-life at 2 µM in data set [2] (pooled plasma) was less than 50 min. Further, in data set [3], the half-life at 1 µM is less than 50 min and the “Formation of EFdA at 30 min” value is “Yes”.
For the compound `C#C[C@]1(COC(=O)OCCCCC23CC4CC(CC(C4)C2)C3)O[C@@H](n2cnc3c(N)nc(F)nc32)C[C@@H]1OC(=O)OCC` [Compound 25, ((2R,3S,5R)-2-[4-(1-adamantyl)butoxycarbonyloxymethyl]-5-(6-amino-2-fluoro-9H-purin-9-yl)-2-ethynyl-tetrahydrofuran-3-yl) ethyl carbonate], the “Formation of EFdA at 30 min” value in data set [2] and in data set [3] was “Yes” in each case. In addition, the half-life at 2 µM in data set [2] (plasma) was in the range of 50 to 200 min. In addition, the half-life at 1 µM in data set [3] is less than 50 min.
With `C#C[C@]1(COC(=O)CCC23CC4CC(CC(C4)C2)C3)O[C@@H](n2cnc3c(N)nc(F)nc32)C[C@@H]1O` [Compound 14, ((2R, 3S, 5R)-5-(6-amino-2-fluoro-9H-purin-9-yl)-2-ethynyl-3-hydroxy-tetrahydrofuran-2-yl)methyl 3-(1-adamantyl)propanoate], the “Formation of EFdA at 30 min” value in data set [2] is recorded as “Yes”. Also, the half-life at 2 µM in data set [2] (pooled plasma) was less than 50 min. Moreover, in data set [3], the half-life at 1 µM was less than 50 min and the “Formation of EFdA at 30 min” value is reported as “Yes”.
For `C#C[C@@]12COC(=O)CCCCCOC(=O)O[C@H]1C[C@H](n1cnc3c(N)nc(F)nc31)O2` [Compound 17, (11aR,13R,14aS)-13-(6-amino-2-fluoro-9H-purin-9-yl)-11a-ethynyloctahydro-11H-furo[3,2-d][1,3,7]trioxacyclotridecine-2,9(4H)-dione], the “Formation of EFdA at 30 min” value in data set [2] is “Yes”. Besides, the half-life at 2 µM in data set [2] (pooled plasma) was more than 200 min. Also, in data set [3], the half-life at 1 µM was less than 50 min and the “Formation of EFdA at 30 min” value is reported as “Yes”.
Regarding `C#C[C@]1(COC(=O)OCC23CC4CC(CC(C4)C2)C3)O[C@@H](n2cnc3c(N)nc(F)nc32)C[C@@H]1OC(=O)OCC12CC3CC(CC(C3)C1)C2` [Compound 23, ((2R,3S,5R)-3-(1-adamantylmethoxycarbonyloxy)-5-(6-amino-2-fluoro-9H-purin-9-yl)-2-ethynyl-tetrahydrofuran-2-yl)methyl 1-adamantylmethyl carbonate], the “Formation of EFdA at 30 min” value in data set [2] is listed as “No”. Moreover, the half-life at 2 µM in data set [2] (pooled plasma) was more than 200 min. In addition, in data set [3], the half-life at 1 µM is less than 50 min and the “Formation of EFdA at 30 min” value is on record as “Yes”.
With `C#C[C@]1(COC(=O)OCCC23CC4CC(CC(C4)C2)C3)O[C@@H](n2cnc3c(N)nc(F)nc32)C[C@@H]1OC(=O)C(C)C` [Compound 19, ((2R,3S,5R)-2-((((2-(1-adamantyl)ethoxy)carbonyl)oxy)methyl)-5-(6-amino-2-fluoro-9H-purin-9-yl)-2-ethynyltetrahydrofuran-3-yl) isobutyrate], the “Formation of EFdA at 30 min” value in data set [2] is “No”. Moreover, in data set [2] (pooled plasma), the half-life at 2 µM is less than 50 min. Besides, in data set [3], the half-life at 1 µM was less than 50 min and the “Formation of EFdA at 30 min” value is on record as “Yes”.
On to `C#C[C@]1(COC(=O)OCCC23CC4CC(CC(C4)C2)C3)O[C@@H](n2cnc3c(N)nc(F)nc32)C[C@@H]1OC(=O)OCC` [Compound 18, ((2R,3S,5R)-2-((((2-(1-adamantyl)ethoxy)carbonyl)oxy)methyl)-5-(6-amino-2-fluoro-9H-purin-9-yl)-2-ethynyltetrahydrofuran-3-yl) ethyl carbonate], for which the “Formation of EFdA at 30 min” value in data set [2] is recorded as “No”. In data set [2] (plasma), this compound registered a half-life at 2 µM of less than 50 min. Moreover, in data set [3], the half-life at 1 µM was less than 50 min and the “Formation of EFdA at 30 min” value is “Yes”.
Regarding `C#C[C@]1(COC(=O)OC23CC4CC(CC(C4)C2)C3)O[C@@H](n2cnc3c(N)nc(F)nc32)C[C@@H]1O` [Compound 4, ((2R, 3S, 5R)-5-(6-amino-2-fluoro-9H-purin-9-yl)-2-ethynyl-3-hydroxy-tetrahydrofuran-2-yl)methyl 1-adamantyl carbonate], the “Formation of EFdA at 30 min” value in data set [2] and in data set [3] was “Yes” each time. For the same compound, in data set [2] (pooled plasma), the half-life at 2 µM is more than 200 min. This compound also came in with a half-life at 1 µM in data set [3] of less than 50 min.
Turning to `C#C[C@@]12COC(=O)OCCCCCC(=O)OC1C[C@H](n1cnc3c(N)nc(F)nc31)O2` (stereo in doubt) [Compound 29, (1R,13R,15R)-15-(6-amino-2-fluoro-9H-purin-9-yl)-13-ethynyl-2,9,11,14-tetraoxabicyclo[11.3.0]hexadecane-3,10-dione], the “Formation of EFdA at 30 min” value in data set [2] and in data set [3] was “Yes” throughout. In data set [2] (pooled plasma), this compound gave a half-life at 2 µM of less than 50 min. In data set [3], this compound came in with a half-life at 1 µM of less than 50 min.

The values are drawn from patent publication US11793827B2, “Adenosine derivative and pharmaceutical composition comprising the same” (Brii Biosciences, Inc., priority 2021, dated 2023).
